From PMC12442639, “A Two‐Protein Chemoreceptor Complex Regulates Oxygen Thresholds in Bacterial Magneto‐Aerotaxis” (Advanced Science, 2025)

Biological target: T1, CetB2 (His6-CetB2) (Magnetospirillum gryphiswaldense, UniProt A0ACM8ULG3)
T1 construct: N-terminal His6 tag (pET28a), expressed in E. coli Rosetta(DE3) pLysSRARE, Ni-agarose purified; predicted FAD-site residues His54, Asn55, Arg58, Phe67, Trp71, Asn86, Val100, Arg117
Experiment: LC-MS of purified protein; UV/vis spectroscopy; cyclic voltammetry
Format: binding
Conditions: non-covalently bound, co-purified FAD; UV/vis in 50 mM Na-phosphate pH 8, 300 mM NaCl, 5% glycerol

T1 sequence (A0ACM8ULG3 entry or part of it): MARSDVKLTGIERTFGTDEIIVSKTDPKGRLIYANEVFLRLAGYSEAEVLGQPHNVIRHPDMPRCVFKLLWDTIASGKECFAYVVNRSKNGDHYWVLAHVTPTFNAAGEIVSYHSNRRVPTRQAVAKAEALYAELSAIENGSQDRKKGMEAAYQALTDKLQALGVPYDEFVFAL

Cc1cc2nc3c(=O)[nH]c(=O)nc-3n(C[C@H](O)[C@H](O)[C@H](O)COP(=O)(O)OP(=O)(O)OC[C@H]3O[C@@H](n4cnc5c(N)ncnc54)[C@H](O)[C@@H]3O)c2cc1C [FAD, flavin adenine dinucleotide]
LC-MS of purified protein; UV/vis spectroscopy; cyclic voltammetry: indicates that FAD was non‐covalently bound to the protein and released during chromatographic separation
